pIC50: −log10 of the molar value. ≈ marks a conversion by molar mass, not a printed value.
Experiments:
Staphylococcus aureus [1] = assay: Antibacterial activity against Staphylococcus aureus ATCC 6538 assessed as reduction in microbial growth after 12 hrs by microbroth dilution method; format: functional
[2] = biological target: T1, Tyrosine-protein phosphatase non-receptor type 1 (Homo sapiens, UniProt P18031); assay: Inhibition of human PTP1B
T1 sequence (P18031 whole entry): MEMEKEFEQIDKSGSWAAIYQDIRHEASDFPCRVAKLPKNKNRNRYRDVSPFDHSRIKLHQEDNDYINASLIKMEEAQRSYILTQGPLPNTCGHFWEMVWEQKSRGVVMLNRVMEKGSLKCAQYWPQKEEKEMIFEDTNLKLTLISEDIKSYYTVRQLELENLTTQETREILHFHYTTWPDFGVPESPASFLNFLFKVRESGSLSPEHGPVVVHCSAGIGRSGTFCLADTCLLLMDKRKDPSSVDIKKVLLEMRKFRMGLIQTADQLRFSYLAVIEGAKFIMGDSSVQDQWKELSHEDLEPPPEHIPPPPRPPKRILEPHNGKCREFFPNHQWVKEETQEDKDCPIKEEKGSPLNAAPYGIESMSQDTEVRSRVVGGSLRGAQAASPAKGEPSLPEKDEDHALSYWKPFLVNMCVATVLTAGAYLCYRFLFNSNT

Escherichia coli [3] = assay: microbe, parasite or virus in culture; format: functional; details: ATCC 25922, time 12 hrs
Description: Antibacterial activity against Escherichia coli ATCC 25922 assessed as reduction in microbial growth after 12 hrs by microbroth dilution method

Streptococcus agalactiae = assay: Antibacterial activity against Streptococcus agalactiae ATCC 13813 assessed as reduction in microbial growth after 12 hrs by microbroth dilution method; format: functional
NCI-H1975 = assay: Cytotoxicity against human NCI-H1975 cells assessed as reduction in cell viability after 24 hrs by CCK8 assay; format: functional, cell-based; details: NCI-H1975, 24 h
[4] = test system: Bacillus amyloliquefaciens; assay: Antibacterial activity against Bacillus amyloliquefaciens GDMCC 60233 assessed as reduction in microbial growth after 12 hrs by microbroth dilution method; format: functional
[5] = biological target: T2, Receptor-type tyrosine-protein phosphatase C (Homo sapiens, UniProt P08575); assay: Inhibition of human CD45
T2 sequence (P08575 whole entry): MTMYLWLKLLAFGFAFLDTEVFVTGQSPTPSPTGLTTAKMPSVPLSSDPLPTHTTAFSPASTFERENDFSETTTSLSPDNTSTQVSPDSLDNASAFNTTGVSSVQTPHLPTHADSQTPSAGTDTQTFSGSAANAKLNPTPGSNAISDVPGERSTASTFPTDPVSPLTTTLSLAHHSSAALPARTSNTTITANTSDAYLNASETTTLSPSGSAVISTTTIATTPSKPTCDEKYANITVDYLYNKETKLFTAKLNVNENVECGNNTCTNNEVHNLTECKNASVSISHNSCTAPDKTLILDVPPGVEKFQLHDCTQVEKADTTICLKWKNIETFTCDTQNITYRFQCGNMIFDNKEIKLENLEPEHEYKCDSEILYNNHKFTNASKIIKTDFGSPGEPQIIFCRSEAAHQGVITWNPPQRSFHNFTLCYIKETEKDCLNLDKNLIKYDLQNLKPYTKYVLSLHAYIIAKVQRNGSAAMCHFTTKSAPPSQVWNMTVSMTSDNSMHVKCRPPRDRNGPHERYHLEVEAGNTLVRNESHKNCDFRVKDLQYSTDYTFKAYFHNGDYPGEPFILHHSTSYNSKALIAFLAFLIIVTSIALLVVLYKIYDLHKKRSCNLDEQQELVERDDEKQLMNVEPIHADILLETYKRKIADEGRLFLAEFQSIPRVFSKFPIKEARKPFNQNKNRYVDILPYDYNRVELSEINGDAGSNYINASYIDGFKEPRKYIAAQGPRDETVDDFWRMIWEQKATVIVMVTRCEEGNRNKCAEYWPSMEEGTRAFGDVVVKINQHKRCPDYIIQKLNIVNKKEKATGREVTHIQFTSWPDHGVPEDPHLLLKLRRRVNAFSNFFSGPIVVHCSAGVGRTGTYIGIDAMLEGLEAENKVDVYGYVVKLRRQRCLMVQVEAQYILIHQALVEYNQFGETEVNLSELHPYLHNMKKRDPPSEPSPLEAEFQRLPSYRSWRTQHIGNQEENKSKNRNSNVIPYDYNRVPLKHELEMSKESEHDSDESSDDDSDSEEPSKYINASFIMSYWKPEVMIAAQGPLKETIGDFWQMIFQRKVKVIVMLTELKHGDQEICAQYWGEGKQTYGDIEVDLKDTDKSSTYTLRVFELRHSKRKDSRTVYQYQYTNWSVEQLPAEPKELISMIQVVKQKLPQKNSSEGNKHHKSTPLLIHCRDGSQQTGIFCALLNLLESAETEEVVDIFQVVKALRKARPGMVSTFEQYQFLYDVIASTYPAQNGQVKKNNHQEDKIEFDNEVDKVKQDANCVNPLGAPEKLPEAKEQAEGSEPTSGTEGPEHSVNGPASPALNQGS

Staphylococcus aureus [6] = assay: Antibacterial activity against methicillin-resistant Staphylococcus aureus assessed as reduction in microbial growth after 12 hrs by microbroth dilution method; format: functional
[7] = biological target: T3, Tyrosine-protein phosphatase non-receptor type 2 (Homo sapiens, UniProt P17706); assay: Inhibition of human TCPTP
T3 sequence (P17706 whole entry): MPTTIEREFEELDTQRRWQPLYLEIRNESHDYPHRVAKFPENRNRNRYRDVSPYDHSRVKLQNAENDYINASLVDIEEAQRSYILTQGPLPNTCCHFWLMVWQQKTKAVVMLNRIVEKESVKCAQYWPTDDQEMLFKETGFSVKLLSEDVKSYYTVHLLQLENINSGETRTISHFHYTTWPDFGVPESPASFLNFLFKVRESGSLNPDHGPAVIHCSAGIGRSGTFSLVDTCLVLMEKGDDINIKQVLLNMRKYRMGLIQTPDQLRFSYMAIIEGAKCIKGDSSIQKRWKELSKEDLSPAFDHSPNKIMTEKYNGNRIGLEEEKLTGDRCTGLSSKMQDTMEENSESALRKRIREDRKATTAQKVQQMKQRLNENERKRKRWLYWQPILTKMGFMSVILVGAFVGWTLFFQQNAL

[8] = biological target: Tyrosine-protein phosphatase non-receptor type 6 (Homo sapiens, UniProt P29350); assay: Inhibition of human SHP1
Sequence of Tyrosine-protein phosphatase non-receptor type 6 (P29350 whole entry): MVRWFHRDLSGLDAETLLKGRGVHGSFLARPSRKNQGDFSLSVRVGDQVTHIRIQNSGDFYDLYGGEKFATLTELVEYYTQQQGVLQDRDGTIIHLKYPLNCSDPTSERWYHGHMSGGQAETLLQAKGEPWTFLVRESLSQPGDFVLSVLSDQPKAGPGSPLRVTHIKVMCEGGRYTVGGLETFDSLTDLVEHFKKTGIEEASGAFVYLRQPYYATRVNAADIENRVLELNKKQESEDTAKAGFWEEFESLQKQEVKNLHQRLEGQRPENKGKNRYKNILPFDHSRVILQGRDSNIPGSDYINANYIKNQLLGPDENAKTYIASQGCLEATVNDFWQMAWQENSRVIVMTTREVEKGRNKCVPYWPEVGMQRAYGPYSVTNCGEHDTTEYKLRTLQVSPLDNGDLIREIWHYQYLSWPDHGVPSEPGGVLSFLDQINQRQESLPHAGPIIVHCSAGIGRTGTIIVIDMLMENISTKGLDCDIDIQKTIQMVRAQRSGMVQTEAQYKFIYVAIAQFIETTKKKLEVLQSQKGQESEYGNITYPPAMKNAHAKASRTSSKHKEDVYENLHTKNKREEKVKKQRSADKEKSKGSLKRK

[9] = biological target: Receptor-type tyrosine-protein phosphatase F (Homo sapiens, UniProt P10586); assay: Inhibition of human LAR
Sequence of Receptor-type tyrosine-protein phosphatase F (P10586 whole entry): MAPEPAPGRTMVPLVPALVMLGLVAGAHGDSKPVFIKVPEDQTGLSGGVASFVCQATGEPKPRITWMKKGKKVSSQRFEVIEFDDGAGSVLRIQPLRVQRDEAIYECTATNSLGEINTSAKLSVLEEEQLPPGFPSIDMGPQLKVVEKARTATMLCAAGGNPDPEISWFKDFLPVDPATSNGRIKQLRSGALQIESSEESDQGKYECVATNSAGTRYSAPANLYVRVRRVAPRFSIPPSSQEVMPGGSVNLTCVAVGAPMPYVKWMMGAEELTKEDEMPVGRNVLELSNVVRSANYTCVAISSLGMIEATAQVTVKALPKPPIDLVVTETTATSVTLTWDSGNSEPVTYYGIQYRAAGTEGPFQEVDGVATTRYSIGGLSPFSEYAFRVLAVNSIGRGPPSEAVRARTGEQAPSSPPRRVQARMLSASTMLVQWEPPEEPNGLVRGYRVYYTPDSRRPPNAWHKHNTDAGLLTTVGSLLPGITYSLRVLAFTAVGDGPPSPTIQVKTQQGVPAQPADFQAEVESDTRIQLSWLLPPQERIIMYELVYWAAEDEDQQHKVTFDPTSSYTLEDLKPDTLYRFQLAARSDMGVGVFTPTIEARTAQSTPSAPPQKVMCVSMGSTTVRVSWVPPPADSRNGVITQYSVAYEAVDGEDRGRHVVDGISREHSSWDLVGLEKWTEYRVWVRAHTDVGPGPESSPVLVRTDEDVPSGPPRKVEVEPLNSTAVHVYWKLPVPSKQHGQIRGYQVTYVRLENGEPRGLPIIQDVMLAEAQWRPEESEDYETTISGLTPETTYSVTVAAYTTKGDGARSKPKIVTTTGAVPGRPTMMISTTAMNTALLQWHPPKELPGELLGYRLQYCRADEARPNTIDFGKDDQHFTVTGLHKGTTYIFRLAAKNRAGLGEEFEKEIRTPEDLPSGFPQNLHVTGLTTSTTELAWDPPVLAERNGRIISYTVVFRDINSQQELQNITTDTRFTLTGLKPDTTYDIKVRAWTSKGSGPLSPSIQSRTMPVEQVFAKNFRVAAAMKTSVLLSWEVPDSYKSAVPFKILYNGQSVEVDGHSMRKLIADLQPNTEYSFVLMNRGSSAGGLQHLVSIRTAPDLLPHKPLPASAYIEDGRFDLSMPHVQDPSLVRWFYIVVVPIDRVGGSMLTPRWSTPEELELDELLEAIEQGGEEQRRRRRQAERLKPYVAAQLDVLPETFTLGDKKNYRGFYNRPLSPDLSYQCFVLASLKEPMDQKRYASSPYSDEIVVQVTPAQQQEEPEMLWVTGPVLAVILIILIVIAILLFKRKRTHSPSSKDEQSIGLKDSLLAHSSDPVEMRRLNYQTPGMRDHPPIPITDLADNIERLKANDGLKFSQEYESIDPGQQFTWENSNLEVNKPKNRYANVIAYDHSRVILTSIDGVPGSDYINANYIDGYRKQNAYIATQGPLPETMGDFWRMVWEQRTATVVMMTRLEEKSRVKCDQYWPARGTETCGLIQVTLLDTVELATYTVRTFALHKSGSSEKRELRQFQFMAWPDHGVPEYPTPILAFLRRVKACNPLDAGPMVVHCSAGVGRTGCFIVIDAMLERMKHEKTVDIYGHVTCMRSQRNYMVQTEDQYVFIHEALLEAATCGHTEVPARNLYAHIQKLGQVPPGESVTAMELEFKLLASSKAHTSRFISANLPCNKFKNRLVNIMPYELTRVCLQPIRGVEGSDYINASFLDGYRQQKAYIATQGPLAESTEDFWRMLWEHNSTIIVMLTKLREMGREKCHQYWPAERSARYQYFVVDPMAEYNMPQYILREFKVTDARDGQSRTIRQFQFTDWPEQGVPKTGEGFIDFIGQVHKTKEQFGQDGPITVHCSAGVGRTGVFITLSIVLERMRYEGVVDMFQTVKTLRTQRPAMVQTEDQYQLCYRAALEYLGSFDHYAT

Bacillus subtilis = assay: Antibacterial activity against Bacillus subtilis BS01 assessed as reduction in microbial growth after 12 hrs by microbroth dilution method; format: functional
Escherichia coli [10] = assay: Antibacterial activity against Escherichia coli assessed as reduction in microbial growth after 12 hrs by broth microdilution method; format: functional
Staphylococcus aureus [11] = assay: Antibacterial activity against methicillin-resistant Staphylococcus aureus assessed as reduction in microbial growth after 12 hrs by broth microdilution method; format: functional

SMILES | MIC (Staphylococcus aureus [1]) [µg/mL] | pIC50 [2] | MIC (Escherichia coli [3]) [µg/mL] | MIC (Streptococcus agalactiae) [µg/mL] | pIC50 (NCI-H1975) | MIC [4] [µg/mL] | pIC50 [5] | MIC (Staphylococcus aureus [6]) [µg/mL] | pIC50 [7] | pIC50 [8] | pIC50 [9] | MIC (Bacillus subtilis) [µg/mL] | MIC (Escherichia coli [10]) [µg/mL] | MIC (Staphylococcus aureus [11]) [µg/mL]
C[C@@H]1C[C@H](C)[C@H]2[C@H]3Oc4ccc(cc4)C[C@]4(O)C[C@]5(C[C@H](O)OO[C@@]6(C)[C@H]7O[C@@]7(C)[C@H]([C@H]3[C@H]6C5=O)[C@]2(C)C1)C(=O)N4 | 50 | < 3.70 | 50 (≈ 88.1 µM) | 50 | < 4.10 | 50 | < 3.70 | 50 | < 3.70 | < 3.70 | < 3.70 | 50 | – | –
C=C[C@@]1(C)C=C(C)[C@@H]2[C@@H]3[C@@H](Oc4ccc(cc4)C[C@@]4(O)C/C(=C(/O)[C@H]31)C(=O)N4)[C@@H]1[C@@H](C)C[C@@H](C)C[C@]12C | 20 | 4.05 | 20 (≈ 39.7 µM) | 20 | 4.14 | 20 | 4.00 | 20 | 4.04 | 4.00 | < 3.70 | 10 | – | –
CO[C@@H]1/C2=C3\O[C@@H](C)[C@@]4(C)C=C(C)[C@@H]5[C@H]([C@H](Oc6ccc(cc6)C[C@]1(O)NC2=O)[C@@H]1[C@@H](C)C[C@@H](C)C[C@]15C)[C@@H]34 | – | 4.41 | – | – | 4.26 | – | 3.72 | – | 4.10 | 4.20 | < 3.70 | – | – | –
CO[C@@]12Cc3ccc(cc3)O[C@H]3[C@H]([C@H]4C(=O)[C@](C[C@@H](O)[C@]4(C)C=O)(C1)C(=O)N2)[C@@H](C(C)=O)[C@]1(C)C[C@H](C)C[C@H](C)[C@@H]31 | > 100 | 4.24 | 100 (≈ 177 µM) | > 100 | – | 100 | < 3.70 | > 100 | 3.89 | 4.00 | < 3.70 | 100 | – | –
CO[C@@H]1C2Cc3ccc(cc3)O[C@H]3[C@H]4[C@@H](C(C)=C[C@]5(C)CC[C@@]1(C(=O)N2)C(=O)[C@H]45)[C@]1(C)C[C@H](C)C[C@H](C)[C@@H]31 | > 100 | – | > 100 | > 100 | – | > 100 | – | > 100 | – | – | – | > 100 | – | –
C=C[C@@]1(C)C=C(C)[C@@H]2[C@@H]3[C@H](Oc4ccc(cc4)C[C@@H]4C(=O)NC(=O)[C@@H]4C(=O)[C@H]31)[C@@H]1[C@@H](C)C[C@@H](C)C[C@]12C | 100 | 4.60 | 50 (≈ 99.7 µM) | 100 | 4.12 | 50 | 5.09 | 50 | 4.85 | – | < 3.70 | 20 | – | –
CO[C@@]12Cc3ccc(cc3)O[C@H]3[C@@H]4[C@H]5C(=O)[C@](C[C@H](O)OO[C@@]5(C)[C@H]5O[C@@]5(C)[C@H]4[C@]4(C)C[C@H](C)C[C@H](C)[C@@H]34)(C1)C(=O)N2 | 50 | < 3.70 | 50 (≈ 86 µM) | 50 | < 4.10 | 50 | < 3.70 | 50 | < 3.70 | < 3.70 | < 3.70 | 50 | – | –
CC(=O)[C@@H]1[C@@H]2[C@H](Oc3ccc(cc3)C[C@]3(O)C[C@]4(C[C@@H](O)[C@](C)(C=O)[C@@H]2C4=O)C(=O)N3)[C@@H]2[C@@H](C)C[C@@H](C)C[C@]21C | > 100 | < 3.70 | 100 (≈ 181 µM) | > 100 | < 4.10 | 100 | < 3.70 | > 100 | < 3.70 | < 3.70 | < 3.70 | 100 | – | –
CO[C@@H]1C2Cc3ccc(cc3)O[C@H]3[C@@H]4[C@H]5C(=O)[C@@]1(C[C@@H](O)[C@@]5(C)C=C(C)[C@H]4[C@]1(C)C[C@H](C)C[C@H](C)[C@@H]31)C(=O)N2 | 20 | 4.00 | 5 (≈ 9.37 µM) | 20 | – | 20 | < 3.70 | 20 | < 3.70 | 4.00 | < 3.70 | 10 | 2 | 2
CC(=O)c1ccc(NC2=C(Cl)C(=O)c3ccccc3C2=O)cc1 | – | – | – | – | – | – | – | – | – | 6.54 | – | – | – | –
CC1=C[C@@]2(C)[C@@H]3C(=O)[C@@]4(C[C@@H]2O)C(=O)NC(Cc2ccc(cc2)O[C@H]2[C@H]3[C@@H]1[C@]1(C)C[C@H](C)C[C@H](C)[C@@H]21)[C@H]4O | 10 | 4.00 | 5 (≈ 9.62 µM) | 10 | – | 20 | < 3.70 | 10 | < 3.70 | 3.70 | < 3.70 | 10 | 2 | 2
CN[C@@H]1[C@@H](O)[C@@H](O[C@@H]2[C@@H](O)[C@H](O[C@H]3O[C@H](CN)CC[C@H]3N)[C@@H](N)C[C@H]2N)OC[C@]1(C)O.O=S(=O)(O)O | 2 | – | – | 10 | – | 1 | – | 5 | – | – | – | 0.5 | – | –
C[C@@H]1C[C@H](C)[C@H]2[C@H]3Oc4ccc(cc4)C[C@]4(O)C/C(=C(/O)[C@H]5[C@H](C)[C@H]6O[C@@]6(C)[C@H]([C@H]35)[C@]2(C)C1)C(=O)N4 | 50 | – | 20 (≈ 40.5 µM) | 50 | – | 20 | – | 50 | – | – | – | 20 | – | –
CO[C@@H]1C2Cc3ccc(cc3)O[C@H]3[C@@H]4[C@H]5C(=O)[C@@]1(C[C@H](O)[C@@]5(C)C=C(C)[C@H]4[C@]1(C)C[C@H](C)C[C@H](C)[C@@H]31)C(=O)N2 | 100 | 4.18 | 50 (≈ 93.7 µM) | 100 | – | 100 | < 3.70 | 100 | < 3.70 | 4.10 | < 3.70 | 50 | 2 | 2

— ChEMBL document CHEMBL5120959, “Pyrrospirones K-Q, Decahydrofluorene-Class Alkaloids from the Marine-Derived Fungus Penicillium sp. SCSIO 41512” (J Nat Prod, 2022)
